Assay results reported in patent US20220402862A1 (Intellia Therapeutics, Inc., priority 2019, published 2022).

Tests used:
[1] = Dynamic light scattering of LNPs: Z-average diameter, number average diameter, PDI; format: physicochemical
Procedure, shortened: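 LNP samples were diluted in PBS and measured by DLS to give intensity-based Z-average diameter, number average diameter and polydispersity index. PDI describes size spread around the mean, with zero meaning a uniform population.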

[2] = RNA encapsulation efficiency of LNPs (Ribogreen fluorescence assay); format: physicochemical; conditions: for % E: sg:mRNA 1:2, N/P about 6, 50/9/38/3, TTR sgRNA (SEQ ID NO: 4), Table 6, Experiments 106-107
Procedure, shortened: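 LNPs were diluted in 1× TE with 0.2% Triton X-100 (total RNA) or without it (free RNA), stained with RiboGreen for ~10 min at room temperature in the dark, and read at Ex 488/Em 525 nm against standard curves of the starting RNA. Encapsulation efficiency = (Total − Free)/Total.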

TTR rat gene = assay: In vivo editing in rat liver, sgRNA targeting TTR (G534), % indel by NGS; parameters: species or system Sprague Dawley female rats; conditions: G534 sgRNA + Cas9 mRNA LNP, Experiment 109
Procedure: Sprague Dawley female rats ranging from 6-7 weeks of age were used in each study. Each animal was weighed and dosing solutions were prepared based on body weight. LNPs were dosed via the lateral tail vein in a volume of 0.35 mL per animal (approximately 2 mL per kilogram body weight). The animals were periodically observed for adverse effects for at least 24 hours post dose.
For studies measuring in vivo editing in liver, animals were dosed at 0.1 mg/kg or 0.3 mg/kg. Animals were euthanized by CO2 asphyxiation 6 days post dose. At necropsy, the liver was collected for editing analysis by NGS and blood was collected into serum separator tubes for serum TTR measurement.
(§1) In brief, to quantitatively determine the efficiency of editing at the target location in the genome, genomic DNA was isolated and deep sequencing was utilized to identify the presence of insertions and deletions introduced by gene editing.
(§2) PCR primers were designed around the target site (e.g., within B2M), and the genomic area of interest was amplified. Additional PCR was performed according to the manufacturer's protocols (Illumina) to add the necessary chemistry for sequencing. The amplicons were sequenced on an Illumina MiSeq instrument. The reads were aligned to the mouse or rat reference genome (e.g., GRCm38) after eliminating those having low quality scores. The resulting files containing the reads were mapped to the reference genome (BAM files), where reads that overlapped the target region of interest were selected and the number of wild type reads versus the number of reads which contain an insertion, substitution, or deletion was calculated.
(§3) The editing percentage (e.g., the “indel efficiency” or “percent indels”) was defined as the total number of sequence reads with insertions or deletions over the total number of sequence reads, including wild type.
In vivo delivery in a rat model was assessed by measuring editing efficiency for materials delivered with formulations including various amine lipid compounds. Cas9 mRNA (SEQ ID NO: 6) was formulated as LNPs with an sgRNA targetting the TTR rat gene (G534, SEQ ID NO: 5). LNPs were formulated and characterized as described in Example 123. Analysis of average particle size, polydispersity (PDI), total RNA content and encapsulation efficiency of RNA are shown in Table 10.
Sprague Dawley female rats were dosed i.v. at 0.1 or 0.3 mg/kg and assessed for editing in liver.

Transthyretin (TTR) [3] = assay: Serum TTR measurement in rats after LNP dosing; format: in vivo, Sprague Dawley female rats; conditions: Experiment 109; for Serum TTR % TSS: rat serum TTR relative to TSS control; for Serum TTR: rat serum, G534 sgRNA + Cas9 mRNA LNP
Transthyretin (TTR) [4] = assay: Serum TTR ELISA in mice after LNP dosing; format: in vivo, CD-1 female mice; conditions: for Serum TTR % TSS: mouse serum TTR relative to TSS control; for Serum TTR: mouse serum
Procedure, shortened: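 Female CD-1 mice, 6–10 weeks, given LNPs by tail-vein injection (~10 mL/kg), 0.1 mg/kg unless noted; serum taken at day 6 or 7 by cardiac puncture. Total mouse TTR by ELISA on sera diluted 10,000-fold (0.1 mg/kg) or 10,000- and 2,500-fold (0.3 mg/kg).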

mouse TTR gene = assay: In vivo editing in mouse liver, sgRNA targeting TTR (G282 or G502), % indel by NGS; parameters: species or system CD-1 female mice; conditions: guide G502, i.v. 0.1 mg/kg, sgRNA:Cas9 mRNA 1:2 w/w, experiments 106, 107
Procedure: CD-1 female mice ranging from 6-10 weeks of age were used in each study. Animals were weighed and grouped according to body weight for preparing dosing solutions based on group average weight. LNPs were dosed via the lateral tail vein in a volume of 0.2 mL per animal (approximately 10 mL per kilogram body weight). The animals were periodically observed for adverse effects for at least 24 hours post dose. For studies measuring in vivo editing in liver, CD-1 female mice were dosed at 0.1 mg/kg unless otherwise noted. Animals were euthanized at 6 or 7 days by ex sanguination via cardiac puncture under isoflurane anesthesia. Liver tissue was collected from each animal for DNA extraction and analysis. Blood was collected into serum separator tubes or into tubes containing buffered sodium citrate for plasma as described herein. Cohorts of mice were measured for editing by Next-Generation Sequencing (NGS).
as §1, §2, §3
We assessed in vivo editing efficiency for materials delivered with formulations including various amine lipid compounds. Editing was measured using either G282 (SEQ ID No: 1) which targets the mouse TTR gene or G650 (SEQ ID No. 2) which targets the mouse B2M gene. Lipids described above were assessed for efficacy through in vivo editing experiments. LNPs were formulated at a 1:1 or 1:1.3 w/w ratio of sgRNA to Cas9 mRNA, and at an N/P ratio of about 6. Molar concentrations of lipids in the lipid component of the LNPs are used at mol % amine lipid/DSPC/cholesterol/PEG-2k-DMG of 50/9/38/3. The final LNPs were characterized to determine the encapsulation efficiency, polydispersity index, and average particle size according to the analytical methods provided above. Analysis of average particle size, polydispersity (PDI), total RNA content and encapsulation efficiency of RNA are shown in Table 2.
To assess whether the editing was dose responsive, experiments were performed in vivo at various LNP dose levels. Cas9 mRNA of Example 120 was formulated as LNPs with an sgRNA targeting TTR (G282, SEQ ID NO: 1; or G502, SEQ ID NO: 4).
We assessed in vivo delivery by measuring editing efficiency for materials delivered with formulations that included various amine lipid compounds. Cas9 mRNA (SEQ ID NO: 6) was formulated as LNPs with an sgRNA targetting the TTR mouse gene (SEQ ID NO: 4). LNPs were formulated at a 1:2 w/w ratio of sgRNA to Cas9 mRNA, and at an N/P ratio of about 6. Molar concentrations of lipids in the lipid component of the LNPs are used at mol % amine lipid/DSPC/cholesterol/PEG-2k-DMG of 50/9/38/3. The final LNPs compositions were characterized and analyzed as described in Example 120. Analysis of average particle size, polydispersity (PDI), total RNA content and encapsulation efficiency of RNA are shown in Table 6.

[5] = pKa measurement of unformulated amine lipid (fluorescence, method of Jayaraman et al.); format: physicochemical; conditions: 100 μM in 0.1 M phosphate buffer, pH 2.0-12.0
Procedure: The pKa of each amine lipid was determined according to the method in Jayaraman, et al. (Angewandte Chemie, 2012) with the following adaptations. […] Lipid was diluted to 100 μM in 0.1 M phosphate buffer (Boston Bioproducts) where the pH ranged from 2.0-12.0. Fluorescence intensity was measured using excitation and emission wavelengths of 321 nm and 448 nm.

[6] = LNP with G534 sgRNA and Cas9 mRNA, sg:mRNA 1:2, experiment 109
[7] = LNP, sg:mRNA 1:1, N/P about 6, 50/9/38/3, Table 2, Experiments 2-20
[8] = LNP, sg:mRNA 1:2, N/P about 6, 50/9/38/3, Table 6, Experiments 106-107

SMILES	Editing Mean % Indel (mouse TTR gene) [%]	Number mean (nm) [1, 8] [nm]	PDI [1, 8]	Z-avg (nm) [1, 8] [nm]	% E ([2]; LNP) [%]	Serum TTR % TSS (Transthyretin (TTR) [4]; guide G502, i.v. 0.1 mg/kg) [%]	Serum TTR (Transthyretin (TTR) [4]; guide G502, i.v. 0.1 mg/kg) [µg/mL]	pKa [5]	further results
CCCCC/C=C\C/C=C\CCCCCCCC(=O)OCC(COC(=O)CCC(OCCCCCCCC)OCCCCCCCC)COC(=O)NCCN(CC)CC (stereo not shown) [Compound 12, 3-((4,4-bis(octyloxy)butanoyl)oxy)-2-((((2-(diethylamino)ethyl)carbamoyl)oxy)methyl)propyl (9Z,12Z)-octadeca-9,12-dienoate]									Number mean (nm) [1, 6]: 62 nm; PDI [1, 6]: 0.06; Z-avg (nm) [1, 6]: 80 nm; Number mean (nm) [1, 7]: 73.4 nm; PDI [1, 7]: 0.007; Z-avg (nm) [1, 7]: 88.53 nm; % E (encapsulation efficiency) [2, 6]: 97%; Encapsulation (%) ([2]; LNP, sg:mRNA 1:1, N/P about 6, amine lipid/DSPC/cholesterol/PEG-2k-DMG 50/9/38/3, Table 2, Experiments 2-20): 83%; Editing Mean % Indel (TTR rat gene; i.v. 0.1 mg/kg): 37.6%; Editing Mean % Indel (TTR rat gene; i.v. 0.3 mg/kg): 62.5%; Serum TTR % TSS (Transthyretin (TTR) [3]; G534, i.v. 0.1 mg/kg): 45.9 % TSS; Serum TTR % TSS (Transthyretin (TTR) [3]; G534, i.v. 0.3 mg/kg): 5.5 % TSS; Serum TTR (Transthyretin (TTR) [3]; i.v. 0.1 mg/kg): 744.2 µg/mL; Serum TTR (Transthyretin (TTR) [3]; i.v. 0.3 mg/kg): 89.1 µg/mL; Serum TTR % TSS (Transthyretin (TTR) [4]; guide G282 experiments): 81%; Serum TTR (Transthyretin (TTR) [4]; guide G282 experiments, ELISA): 736 µg/mL
CCCCCCCCCCCCCCCCCC(=O)OCC(COC(=O)CCC(OCCCCCCCC)OCCCCCCCC)COC(=O)OCCCN(CC)CC (stereo not shown) [Compound 114, 3-((4,4-bis(octyloxy)butanoyl)oxy)-2-((((3-(diethylamino)propoxy)carbonyl)oxy)methyl)propyl stearate]	18.04	72	0.02	87	96	88.4	978.01	6.13	
CCCCCCCC/C=C\CCCCCCCC(=O)OCC(COC(=O)CCC(OCCCCCCCC)OCCCCCCCC)COC(=O)OCCCN(CC)CC (stereo not shown) [Compound 115, 3-((4,4-bis(octyloxy)butanoyl)oxy)-2-((((3-(diethylamino)propoxy)carbonyl)oxy)methyl)propyl oleate]	19.68	76	0.01	93	97	73.8	816.3	5.96	
CC/C=C\C/C=C\C/C=C\CCCCCCCC(=O)OCC(COC(=O)CCC(OCCCCCCCC)OCCCCCCCC)COC(=O)OCCCN(CC)CC (stereo not shown) [Compound 116, 3-((4,4-bis(octyloxy)butanoyl)oxy)-2-((((3-(diethylamino)propoxy)carbonyl)oxy)methyl)propyl (9Z,12Z,15Z)-octadeca-9,12,15-trienoate]	34.48	74	0	90	99	51.3	567.09	6.04	
